One test addresses T1, MC1-R (Mus musculus, UniProt Q01727).
T1 construct: B-16 mouse melanoma cells (containing MC1-R); endogenous in cells; host or cells: B-16 mouse melanoma cells (membranes)
The experiment in a line: competitive inhibition binding assay with 125I-NDP-alpha-MSH, B-16 mouse melanoma cell membranes. To be noted: for % Inhibition at 1 µM MC-1: 0.4 nM 125I-NDP-alpha-MSH, B-16 mouse melanoma cell membranes, mean of triplicate; for receptor specificity MCR-1 versus MCR-4: conclusion from Table 2. The procedure: (§1) Ac-Nle-Ala-His-D-Phe-Arg-Trp-NH2 is a known receptor-binding sequence for melanotropin receptors. The K, values for binding to MCR-1 and -4 were measured to be 0.1 µM and 2 µM respectively. A series of metallopeptides based on this sequence were synthesized by inserting a Cys residue after the 2 position and through the n+1 position and complexing the resulting Cys-containing peptide with an Re-oxo metal ion core as described Example 1. The resulting metallopeptides were screened for inhibiting the binding of 125-I-NDP-alpha-MSH radioligand using B-16 mouse melanoma cells for MCR-1 and cloned human MCR-[…] and -4 receptor transfected 293 cells.
(§2) The competitive inhibition binding assay was conducted using membranes prepared from hMC3-R, hMC4-R, hMC5-R, and B-16 mouse melanoma cells (containing MC1-R) using 0.4 nM ^125I-NDP-alpha-MSH (New England Nuclear, Boston, MA, USA) in 50 mM HEPES buffer containing 1 mM MgCl2, 2 mM CaCl2, and 5 mM KCI, at pH 7.2. The assay tube also contained a chosen concentration of the test peptide of this invention, complexed to a rhenium metal ion as indicated, for determining its efficacy in inhibiting the binding of ^125I-NDP-alpha-MSH to its receptor. Non-specific binding was measured by complete inhibition of binding of ^125I-NDP-alpha-MSH in the assay with the presence of 1 µM alpha-MSH. Incubation was for 90 minutes at room temperature, after which the assay mixture was filtered and the membranes washed three times with ice cold buffer. The filter was dried and counted in a gamma counter for remaining radioactivity bound to the membranes. 100% specific binding was defined as the difference in radioactivity (cpm) bound to cell membranes in the absence and presence of 1 µM alpha-MSH. The cpm obtained in presence of test compounds were normalized with respect to 100% specific binding to determine the percent inhibition of ^125I-NDP-alpha MSH binding. Each assay was conducted in triplicate and the actual mean valves are described in Table 2.

A further test concerns the target T2, hMC5-R (Homo sapiens, UniProt P33032).
T2 construct: expressed in transfected cells; host or cells: 293 cells are named only for 'MCR-2, -3 and -4'; for MC5-R the host is inferred
The experiment in a line: competitive inhibition binding assay with 125I-NDP-alpha-MSH, hMC5-R membranes. To be noted: 0.4 nM 125I-NDP-alpha-MSH, mean of triplicate. The procedure:
as §2

The target in another test is T3, hMC3-R (Homo sapiens, UniProt P41968).
T3 construct: expressed in transfected cells; host or cells: 293 cells
The experiment in a line: competitive inhibition binding assay with 125I-NDP-alpha-MSH, hMC3-R membranes. To be noted: 0.4 nM 125I-NDP-alpha-MSH, mean of triplicate. As for the experimental part: as §1, §2

Another test has as its target T4, hMC4-R (Homo sapiens, UniProt P32245).
T4 construct: expressed in transfected cells; host or cells: 293 cells
The experiment in a line: competitive inhibition binding assay with 125I-NDP-alpha-MSH, hMC4-R membranes. To be noted: 0.4 nM 125I-NDP-alpha-MSH, mean of triplicate. As for the experimental part:
as §1, §2

The next test concerns the target T5, angiotensin-II receptor (Homo sapiens, UniProt P30556).
T5 construct: cell membranes obtained from human neuroblastoma cells (KAN-TS); endogenous in cells; host or cells: KAN-TS human neuroblastoma cells (membranes)
T5 sequence (P30556 1-359): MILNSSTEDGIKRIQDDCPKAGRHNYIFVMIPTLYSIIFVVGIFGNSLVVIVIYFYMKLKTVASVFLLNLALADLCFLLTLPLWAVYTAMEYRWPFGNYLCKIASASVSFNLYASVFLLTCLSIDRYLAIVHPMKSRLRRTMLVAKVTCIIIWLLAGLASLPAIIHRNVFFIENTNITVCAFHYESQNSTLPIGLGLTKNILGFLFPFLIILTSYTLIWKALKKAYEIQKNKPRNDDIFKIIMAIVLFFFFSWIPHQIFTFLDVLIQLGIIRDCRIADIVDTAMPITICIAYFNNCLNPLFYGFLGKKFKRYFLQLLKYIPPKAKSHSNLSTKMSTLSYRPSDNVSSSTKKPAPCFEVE
The experiment in a line: angiotensin-II receptor binding, radioiodinated angiotensin II ligand, membranes of human neuroblastoma cells (KAN-TS). To be noted: for % Inhibition at 1 µM: KAN-TS cell membranes, 125I-Tyr4, Sar1, Ile8-Angiotensin II. As for the experimental part: The screening of compounds for binding to the angiotensin-II receptor was performed using cell membranes obtained from human neuroblastoma cells (KAN-TS). The assay was performed in triplicates, generally as described in Example 4 for oxytocin, except for measurement of receptor bound radioactivity. For angiotensin, a radioiodinated tracer ligand was used (instead of a tritiated ligand), which radioiodinated tracer facilitated direct measurement of bound radioactivity using a gamma counter. A final 1-3 nM concentration of ^125I-Tyr^4, Sar^1, Ile^8-Angiotensin II ligand (obtained from Perkin Elemer - NEN Life Sciences) was used as radiotracer and angiotensin-II (1 µM final assay concentration) was used to measure non-specific binding. After filtration of the incubation medium, followed by washings, drying the filters and punching the filters into test tubes, the filters were counted for radioactivity in a gamma counter. An activity profile for the test compounds was generated by ability to inhibit specific binding of the radiotracer to its receptor.

Square brackets hold non-standard residues; d marks the D form. Ends that are not written are not given here. Nle = CCCC[C@H](N)C(=O)O; Sar = CNCC(=O)O

T1 sequence (Q01727 whole entry): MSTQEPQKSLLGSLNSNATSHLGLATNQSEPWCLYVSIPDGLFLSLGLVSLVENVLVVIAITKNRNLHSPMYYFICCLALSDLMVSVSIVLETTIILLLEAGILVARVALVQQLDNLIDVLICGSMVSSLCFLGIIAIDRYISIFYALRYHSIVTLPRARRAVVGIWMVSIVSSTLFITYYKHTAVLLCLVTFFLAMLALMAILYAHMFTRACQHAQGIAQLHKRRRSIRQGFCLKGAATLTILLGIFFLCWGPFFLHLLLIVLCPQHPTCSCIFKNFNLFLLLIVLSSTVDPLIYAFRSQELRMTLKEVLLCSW
T2 sequence (P33032 whole entry): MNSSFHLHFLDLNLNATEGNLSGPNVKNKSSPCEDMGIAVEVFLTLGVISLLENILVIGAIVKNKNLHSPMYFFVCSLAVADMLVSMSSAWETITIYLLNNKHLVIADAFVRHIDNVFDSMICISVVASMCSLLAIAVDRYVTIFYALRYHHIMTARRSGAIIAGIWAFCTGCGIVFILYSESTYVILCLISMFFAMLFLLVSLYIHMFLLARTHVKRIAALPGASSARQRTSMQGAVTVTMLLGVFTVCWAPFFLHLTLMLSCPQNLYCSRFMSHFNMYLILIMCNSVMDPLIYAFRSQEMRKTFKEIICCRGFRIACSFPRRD
T3 sequence (P41968 whole entry): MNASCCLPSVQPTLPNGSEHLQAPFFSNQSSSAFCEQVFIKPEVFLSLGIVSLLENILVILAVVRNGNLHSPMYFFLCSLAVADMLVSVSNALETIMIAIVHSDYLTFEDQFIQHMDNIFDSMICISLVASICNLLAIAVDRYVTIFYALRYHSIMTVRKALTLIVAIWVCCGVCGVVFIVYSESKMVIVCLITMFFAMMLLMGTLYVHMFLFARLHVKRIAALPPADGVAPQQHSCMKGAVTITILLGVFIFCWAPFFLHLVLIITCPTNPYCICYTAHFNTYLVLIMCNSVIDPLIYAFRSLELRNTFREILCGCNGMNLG
T4 sequence (P32245 whole entry): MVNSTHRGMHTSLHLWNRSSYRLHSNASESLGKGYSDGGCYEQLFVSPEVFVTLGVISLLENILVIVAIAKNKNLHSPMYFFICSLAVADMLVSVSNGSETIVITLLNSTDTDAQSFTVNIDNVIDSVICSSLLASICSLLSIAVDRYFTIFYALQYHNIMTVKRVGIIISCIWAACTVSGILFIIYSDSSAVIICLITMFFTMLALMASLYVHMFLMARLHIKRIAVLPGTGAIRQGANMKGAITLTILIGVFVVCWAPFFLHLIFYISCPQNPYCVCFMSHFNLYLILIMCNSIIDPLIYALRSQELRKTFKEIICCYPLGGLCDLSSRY

Consider Ac-[Nle]ACH[dF]RW-NH2, for which, on MC1-R, the “% Inhibition at 1 µM MC-1” value worked out at 96%. The “% Inhibition at 1 µM MC-5” value at hMC5-R came to 64%. The “% Inhibition at 1 µM MC-3” value on hMC3-R came to 47%. The “% Inhibition at 1 µM MC-4” value on hMC4-R worked out at 71%.

Regarding Ac-[Nle]AHC[dF]RW-NH2, the “% Inhibition at 1 µM MC-1” value at MC1-R was 84%. The “% Inhibition at 1 µM MC-5” value at hMC5-R amounted to 58%. At hMC3-R, the “% Inhibition at 1 µM MC-3” value was found to be 9%. The “% Inhibition at 1 µM MC-4” value at hMC4-R was determined as 75%.

Regarding Ac-[Nle]AH[dF]CRW-NH2, the “% Inhibition at 1 µM MC-1” value at MC1-R turned out to be 93%. Moreover, the “% Inhibition at 1 µM MC-5” value at hMC5-R was found to be 57%. In addition, the “% Inhibition at 1 µM MC-3” value on hMC3-R was found to be 15%. Also, on hMC4-R, the “% Inhibition at 1 µM MC-4” value came out at 66%.

Consider Ac-[Nle]AH[dF]RCW-NH2, for which, at MC1-R, the “% Inhibition at 1 µM MC-1” value turned out to be 96% and the “receptor specificity MCR-1 versus MCR-4” value is listed as “specific for the MCR-1 receptor but not the MCR-4 receptor”. Also, the “% Inhibition at 1 µM MC-5” value on hMC5-R is 0%. Also, the “% Inhibition at 1 µM MC-3” value on hMC3-R was 0%. In addition, the “% Inhibition at 1 µM MC-4” value on hMC4-R is 17%.

Regarding Ac-[Nle]AH[dF]RWC-NH2, at MC1-R, the “% Inhibition at 1 µM MC-1” value is recorded as 91%; the “receptor specificity MCR-1 versus MCR-4” value is “binding both the MCR-1 and MCR-4 receptors”. Also, the “% Inhibition at 1 µM MC-5” value at hMC5-R is listed as 93%. The “% Inhibition at 1 µM MC-3” value at hMC3-R stood at 70%. At hMC4-R, the “% Inhibition at 1 µM MC-4” value is 98%.

“Sar-Arg-Val-Tyr-Cys-Ile-His-Pro-Thr ([Sar]RVYCIHPT; not fully specified (bridges); printed as Sar-Arg-Val-Tyr-Cys-Ile-His-Pro-Thr; also: oxorhenium(V) metal complex) [SEQ ID NO:163]”: the “% Inhibition at 1 µM” value with angiotensin-II receptor worked out at 12%.

With “Sar-Arg-Val-Tyr-Ile-Cys-His-Pro-Thr ([Sar]RVYICHPT; not fully specified (bridges); printed as Sar-Arg-Val-Tyr-Ile-Cys-His-Pro-Thr; also: oxorhenium(V) metal complex) [SEQ ID NO:162]”, in the test with angiotensin-II receptor, the “% Inhibition at 1 µM” value turned out to be 20%.

As to “Sar-Arg-Val-Tyr-Ile-His-Cys-Gly-Thr ([Sar]RVYIHCGT; not fully specified (bridges); printed as Sar-Arg-Val-Tyr-Ile-His-Cys-Gly-Thr; also: oxorhenium(V) metal complex) [SEQ ID NO:166]”, in the test with angiotensin-II receptor, the “% Inhibition at 1 µM” value was 11%. Moreover, the “percent inhibition compared with SEQ ID NO:161” value in the test with angiotensin-II receptor (Gly substituted for Pro) is on record as “significantly less”.

Take “Sar-Arg-Val-Tyr-Ile-His-Cys-Pro-Thr ([Sar]RVYIHCPT; not fully specified (bridges); printed as Sar-Arg-Val-Tyr-Ile-His-Cys-Pro-Thr; also: oxorhenium(V) metal complex) [SEQ ID NO:161]”: the “% Inhibition at 1 µM” value with angiotensin-II receptor is 60%.

As to “Sar-Arg-Val-Tyr-Ile-His-Gly-Cys-Thr ([Sar]RVYIHGCT; not fully specified (bridges); printed as Sar-Arg-Val-Tyr-Ile-His-Gly-Cys-Thr; also: oxorhenium(V) metal complex) [SEQ ID NO:160]”, the “% Inhibition at 1 µM” value with angiotensin-II receptor is 5%.

The % Inhibition is the share of the control response that was lost under treatment. The low end stands for a response near the control, the high end for a response far below the control.
